What was measured:
Assay type in all cases: cell-based, mouse
Rb1 GBM cells = assay: RNA-seq differential expression, TMZ vs DMSO; conditions: 1 mM TMZ vs DMSO, 48 h
Procedure: (§1) Temozolomide (TMZ) treatment, Cell viability assay, and RNAseq: After 7-9 days' culture under puromycin selection, lentiviruses-infected Nf1 and Rb1 knockout tumor cells were plated in triplicates into 96-well plate at a density of 2.5×10^3 cells per well, and ˜5×10^6 cells were collected at the same time and used for cutting efficiency analysis. One day after plating, either TMZ or DMSO was added at a concentration of 10 μM, 100 μM, 500 μM, 1 mM, and 2 mM. After 3 days of drug/vehicle treatment, cell viability was measured using CellTiter Glo (Promega) according to the manufactures' protocol. Briefly, the CellTiter Glo was equilibrated at room temperature for 1 h before use. The media of 96-well plates was aspirated, and then 50 μL fresh DMEM+10% FBS and 50 μL CellTiter Glo was added. The luminescent signals were readout using EnVision plate reader (PerkinElmer). For RNAseq samples preparation, cell lines harboring specific gene knockouts were cultured for 7-9 days under the selection pressure of puromycin, and then plated into 6-well plates at a density of 2×10^5 cells per well in triplicates. 24 h after plating, 1 mM TMZ or DMSO in fresh DEME+10% FBS was added and cultured for another 48 h. Then, cellular RNA of control or treated cells were extracted by adding 350 μL TRIzol Reagent (Invitrogen) directly into 6-well plates to lyse the cells, followed by gently shaking the plates and incubation for 5-10 min to complete and lysis and homogenization. Then, 70 μL chloroform was added, vigorously mixed, and centrifuged at 16,000 g for 15 min. Transfer the RNA containing aqueous phase to a new tube and further purified using RNeasy mini kit (Qiagen). After eluting RNA from column using Nuclease free water, the concentrations of sample RNA were normalized into 150-300 ng/uL for RNAseq.
(§2) Transcriptome profiling of different driver combinations in the presence and absence of chemotherapy: Mixtures of five sgRNAs targeting each gene were cloned as sgRNA minipool into the same astrocyte-specific AAV-CRISPR vector. After packaging, AAV minipools were stereotaxically injected into the lateral ventricle of LSL-Cas9 mice. Cell lines were derived from mouse GBMs by single-cell isolation, plating and culture in DMEM media. Additional driver mutations were introduced by lentiCRISPR where applicable. GBM cells with different drivers were treated with DMSO or TMZ for 48 h, and harvested for mRNA-seq for transcriptome profiling. Briefly, total RNA was extracted from cancer cells derived from AAV-CRISPR minipools induced GBM treated with DMSO or TMZ, using commercially available kits (Qiagen/Thermofisher). PolyA-mRNA library was constructed using Illumina TruSeq mRNA library prep kit, and sequenced on Illumina Hiseq 2500 and/or Hiseq 4000 platform.
(§3) RNA-seq differential expression analysis: Strand-specific single-end RNA-seq read files were analyzed to obtain transcript level counts using Kallisto, with the settings --rf-stranded -b 100. The counts were subsequently passed to the tximport R package to collapse to gene level counts. Pairwise differential expression analysis between groups was then performed using edgeR with default settings.

Rb1; Pten GBM cells = assay: RNA-seq differential expression, TMZ vs DMSO; conditions: 1 mM TMZ vs DMSO, 48 h
Procedure: as §1, §2, §3

Rb1; Zc3h13 GBM cells = assay: RNA-seq differential expression, TMZ vs DMSO; conditions: 1 mM TMZ vs DMSO, 48 h
Procedure: as §1, §2, §3

[1] = test system: Rb1, Rb1; Pten, and Rb1; Zc3h13 GBM cells; assay: RNA-seq TMZ vs DMSO, overlap of differentially expressed genes between genotypes
Procedure: as §1
as §2, with “Briefly, total RNA was extracted from cancer cells derived from AAV-CRISPR minipools induced GBM treated with DMSO or TMZ, using commercially available kits (Qiagen/Thermofisher). PolyA-mRNA library was constructed using Illumina TruSeq mRNA library prep kit, and sequenced on Illumina Hiseq 2500 and/or Hiseq 4000 platform.” left out
RNA-seq differential expression analysis: Strand-specific single-end RNA-seq read files were analyzed to obtain transcript level counts using Kallisto, with the settings --rf-stranded -b 100. […]

[2] = shared by Rb1, Rb1, Pten, Rb1, Zc3h13

## Cn1nnc2c(C(N)=O)ncn2c1=O [TMZ, temozolomide]
Rb1 GBM cells
  genes significantly higher in DMSO-treated cells (TMZ-reduced genes): 332 genes
Rb1 GBM cells; adjusted p<0.05, log fold change ≥1 or ≤−1
  genes significantly higher in TMZ-treated cells (TMZ-induced genes): 352 genes
Rb1; Pten GBM cells
  genes significantly higher in DMSO-treated cells: 313 genes
  genes significantly higher in TMZ-treated cells: 345 genes
Rb1; Zc3h13 GBM cells
  genes significantly higher in DMSO-treated cells: 166 genes
  genes significantly higher in TMZ-treated cells: 703 genes
[1]
  genes significantly reduced upon TMZ treatment in Rb1; Zc3h13 and Rb1; Pten cells, but not in Rb1 cells: 37 genes
  genes upregulated upon TMZ treatment in Rb1; Zc3h13 and Rb1; Pten cells, but not in Rb1 cells: 60 genes
[1]; [2]
  genes downregulated among all 3 genotypes upon TMZ treatment: 69 genes
  genes upregulated in all 3 groups upon TMZ treatment: 42 genes

— patent publication US20200010903A1, “AAV-Mediated Direct In vivo CRISPR Screen in Glioblastoma” (YALE UNIVERSITY, priority 2017, published 2020)
